Source: US20240325548A1, “DYNAMIC BIOACTIVE SCAFFOLDS AND THERAPEUTIC USES THEREOF AFTER CNS INJURY” (Northwestern University, priority 2021, published 2024)

Tests used:
β1-INTEGRIN (ITGB1) = molecular target: T1, β1-INTEGRIN (ITGB1) (Homo sapiens, UniProt P05556); test: ITGB1 activation and intracellular signaling in hNPCs treated with IKVAV PAs (confocal microscopy, WB); format: cell-based
T1 construct: endogenous in cells; host or cells: hNPCs differentiated from human embryonic stem cells HUES 64
Excerpt: (§1) Neural progenitor cells (NPCs) were differentiated from human embryonic stem cells HUES 64 (Harvard University) (see FIG. 2C). In short, 70% confluent stem cell cultures grown in Matrigel (Thermo Fisher) coated plates with mTESR medium (STEMCELL Technologies), were switched to N2B27 medium (50% DMEM: F12, 50% Neurobasal, supplemented with NEAA, Glutamax, N2 and B27; Gibco) containing dual SMAD inhibitors (SB431542, DNSK International and LDN-193189, Tocris) for 12 days to induce the generation of neural progenitors. Neuralization was enhanced by supplementing medium with laminin from day 5 to 12. Next, neural rosettes were dissociated with neural rosette selection reagent (STEMCELL Technologies) to obtain NPCs, which are expanded in N2B27 (Gibco) medium supplemented with bFGF (Millipore). For experimentation in the different PA platforms, NPCs were dissociated with Accutase (Innovative Cell technology), and cultured in the distinct platforms with DMEM: F12+N2+B27 medium with hyclone penicillin-streptomycin (GE Healthcare) and ascorbic acid (0.2 μg/mL; Sigma-Aldrich).
(§2) For IKVAV PA treatments, hNPCs were cultured on ornithine coatings (German Glass, Chemglass Life Science) in 6 well and 24 well plates at a density of 500,000 cells/well and 80,000 cells/well respectively. hNPCs were treated with […] of IKVAV PAs ([PA]=6 mM, [KCl]=3 mM, [NaCl]=150 mM) or recombinant laminin protein (10 mg/mL) in solution. IKVAV PA2 and IKVAV PA5 were also mixed with 5 mM CaCl2) at a ratio PA:CaCl2) 6:1 to treat hNPCs. For 2D experiments, hNPCs were cultured on the different IKVAV PAs or laminin coatings in 6 well and 24 well plates at densities mentioned above. For co-assembled experiments, hNPCs were cultured on the different co-assembled PA coatings in 6 well and 24 well plates at a density of 400,000 cells/well and 50,000 cells/well respectively.
(§3) hNPCs were fed 4 times a week with DMEM: F12+N2^+B27 medium with hyclone penicillin-streptomycin and ascorbic acid. After 24 h, 72 h 1- or 2-weeks in vitro, cell lysates were harvested or fixed for WB or ICC, respectively. Three replicates per condition and at least three independent experiments were carried out for all conditions investigated.
(§4) For immunofluorescence, fixed primary cultures or free-floating tissue sections (40 m Thick) were incubated in blocking buffer containing 0.02% Triton-X (Sigma-Aldrich), 1% NHS (Gibco) and PBS 1× (Gibco). Samples were incubated with primary antibodies over night at 4° C. Alexa-488, Alexa-555 and/or Alexa-647 (1:500, Thermofisher) were used as secondary antibodies. DAPI (1:500, Thermofisher) was used to stain nuclei. Finally, the samples were mounted on coverslips with Immu-Mount (Fisher Scientific) solution for imaging.
RIPA buffer (Thermofisher) with a cocktail of Halt Protease and Phosphatase Inhibitors (Thermofisher) was used to extract protein from in vitro and in vivo samples. For in vivo studies, spinal cord tissue was then sonicated using a horn sonicator (Branson) to break up the tissue. A Pierce™ BCA Protein Assay Kit (Thermofisher) was used to determine protein content for all samples used. Protein extracts obtained from cell cultures or tissue were separated using an SDS-polyacrylamide gel and electro-transferred to a nitrocellulose membrane (Bio-Rad). Membranes were blocked for 30 minutes to 1 hour using a 5% milk solution (Bio-Rad) and incubated over night with primary antibodies. Corresponding secondary HRP-conjugated antibodies (1:1000, ThermoFisher) were used for 1 h at room temperature. Radiance Bioluminescent ECL substrate (Azure Biosystems) was used to detect protein signal. The membranes were imaged using the Azure Biosystems imager and densitometry analysis were performed using ImageJ software.

[1] = T2-NMR spin-spin relaxation rate of PA assemblies; format: physicochemical; details: T2 relaxation of K residue of IKVAV PAs, no Ca2+
Protocol: NMR spectra were acquired at 600 MHz on a Tecmag NMR spectrometer using a Doty diffusion probe with a sweep width of 6 kHz and 16k data points or at 600 MHz on a Brucker Neo system with QCI-F cryoprobe.
NMR spectra for IKVAV PAs were recorded at 25° C. using TFA-d, H2O/D2O in 9/1 ratio (D2O contains 0.05 wt. % 3-(trimethylsilyl) propionic-2,2,3,3-d4 acid, sodium salt) as solvents. Chemical shifts are reported in part per million (ppm). Structural assignment was performed using ^1H,^1H-gCOSY, ^1H,^13C-gHSCQAD, TOCSY and NOESY. Multiplicities are quoted as singlet (s), doublet (d), multiplets (m), doublet of doublets (dd), doublet of doublet of doublets (ddd), triplet (t), quartet (q). The […] and typical spectra required 32 scans. Additional scans (512) were required for accurate estimation of the aromatic signal intensity since the epitope containing aromatic protons was present at only 10 mol %.
The spin-spin relaxation rates were measured using the Carr-Purcell-Gill-Meiboom pulse sequence with a delay time of 0.2 ms in a variable loop. The peak intensity data was fit to and exponential in the form:
where τ is the length of the delay time, R2 is the spin-spin relaxation rate and b are the baseline.

hNPCs [2] = test: Neuronal differentiation of hNPCs treated with IKVAV PAs (TUJ-1+ cells); format: cell-based, human
Excerpt: as §1, §2, §3, §4
For in vitro cell quantification, image files were imported into NIH Image J (1.51) software and the “analyze particles” and “cell counter” functions were used to measure the total number of cells in a determined area. Serial tissue sections were stained with NeuN and ChAT using free-floating immunostaining were quantified using Nikon Elements software. The rostral and caudal borders of the lesions were chosen as the first cross-sections that had NeuN staining in all four gray matter horns. 8 sections within the lesion were chosen per animal and expressed as number of neurons per section. Automated multichannel image acquisition, image stitching, and z-stack reconstruction ([…]) were carried out on a Nikon GasP R1 confocal microscope to image the entire selected cross-section for NeuN and Chat markers for all conditions.

[3] = tested on: murine model of severe spinal cord injury (SCI); test: Glial scar, GAP-43, MBP, laminin and fibronectin in the SCI lesion (immunofluorescence, WB); details: mouse, in vivo
Protocol: All experiments were conducted at the Simpson Querrey Institute at Northwestern University. 182 CD1 mice (Charles River) were subjects of this study (N=38 Sham, N=38 IKVAV PA2 alone, N=38 IKVAV PA2+FGF2 PA1, N=38 IKVAV PA2+FGF2 PA2, N=12 IKVAV PA1, N=12 Backbone PA, N=6 IKVAV PA4). The age of animals used in the study was in the range of 10-16 weeks. 8 independent in vivo experiments were carried out (injury+PA injection) and each of the 8 experiments had animals of the exact same age which were injected with at least the 4 main treatment groups: Sham, IKVAV PA2 alone, IKVAV PA2+FGF2 PA1, and IKVAV PA2+FGF2 PA2. Animals were anesthetized using 2.5% isoflurane gas with oxygen. A laminectomy was performed to expose the spinal cord at the T10-T11 spinal level. A severe contusive injury was performed using the Infinite Horizon Spinal Cord Impactor system (IH-0400 Precision Systems and Instrumentation) with 85 kdyn of impact force and a dwell time of 60 s. […]
PAs (dissolved in sterile NaCl 0.9% solution at 1 wt %) were injected 24 h after SCI using a glass capillary micropipette (Sutter Instruments, Novato, CA) (outer diameter, 100 m) coated with Sigmacote (Sigma-Aldrich) to reduce surface tension as described elsewhere (19). […] The micropipette was lowered to a depth of 750 m measured from the dorsal surface of the cord, and 4-6 μL of the diluted amphiphile solution was injected at 1 L/min. […]

[4] = tested on: murine model of severe spinal cord injury (SCI); test: Corticospinal tract (CST) axon regrowth after SCI (BDA tracing); format: in vivo, mouse; details: 12 weeks after injury, BDA-labeled axons
Protocol: All experiments were conducted at the Simpson Querrey Institute at Northwestern University. 182 CD1 mice (Charles River) were subjects of this study (N=38 Sham, N=38 IKVAV PA2 alone, N=38 IKVAV PA2+FGF2 PA1, N=38 IKVAV PA2+FGF2 PA2, N=12 IKVAV PA1, N=12 Backbone PA, N=6 IKVAV PA4). The age of animals used in the study was in the range of 10-16 weeks. 8 independent in vivo experiments were carried out (injury+PA injection) and each of the 8 experiments had animals of the exact same age which were injected with at least the 4 main treatment groups: Sham, IKVAV PA2 alone, IKVAV PA2+FGF2 PA1, and IKVAV PA2+FGF2 PA2. Animals were anesthetized using 2.5% isoflurane gas with oxygen. A laminectomy was performed to expose the spinal cord at the T10-T11 spinal level. A severe contusive injury was performed using the Infinite Horizon Spinal Cord Impactor system (IH-0400 Precision Systems and Instrumentation) with 85 kdyn of impact force and a dwell time of 60 s. After the lesion, the skin was sutured using 9 mm wound clips (BD Biosciences) and the animals were recovered on a heating pad to maintain body temperature. Bladders were manually expressed daily during the entire 12 weeks of the experiment.
PAs (dissolved in sterile NaCl 0.9% solution at 1 wt %) were injected 24 h after SCI using a glass capillary micropipette (Sutter Instruments, Novato, CA) (outer diameter, 100 m) coated with Sigmacote (Sigma-Aldrich) to reduce surface tension as described elsewhere (19). The capillaries were loaded onto a Hamilton syringe using a female Luer adaptor (World Precision Instruments) controlled by a Micro4 microsyringe pump controller (World Precision Instruments). Under isoflurane anesthesia, autoclips were removed and the injury site was exposed. At 24 h post injury, the laminectomy in the spinal column was still intact and the bruise created by the lesion was visible. A stereotaxic Kopf apparatus was used to position the micropipette just dorsal to the lesion. The micropipette was lowered to a depth of 750 m measured from the dorsal surface of the cord, and 4-6 μL of the diluted amphiphile solution was injected at 1 L/min. […]
Axons labeled using BDA (Thermofisher, N7167) or stained with 5HT (Abcam) were quantified using Imaris® software version 9.3 as previously described (21). Lines were drawn across longitudinal spinal cord sections from the proximal border (PB) to the distal border (DB) of the SCI lesion at consistent distances and the number of axons intercepting the lines drawn was counted by researchers that were blinded to the experimental conditions. Multiple sections through the middle of the cord, where BDA or 5HT staining was denser, were counted per mouse and expressed as total intercepts per location, per animal. […]

hNPCs [5] = test: hNPC attachment, proliferation and phenotype on co-assembled PA coatings (EdU, SOX-2, PAX6); format: cell-based, human
Excerpt: as §1, §2, §3
For the hNPCs proliferation assay, 2 μM of the thymidine analog 5-ethynyl-2′-deoxyuridine (EdU, Thermo Fisher) was incorporated into the culture medium for 24 h. Cells were fixed at the indicated time points in 4% paraformaldehyde (PFA) for 15 min at RT. After fixation, samples were washed in PBS twice and then stained with Click-iT™ EdU Cell Proliferation Kit containing 11 mM CuSO4 (from 50 mM stock) and 1 μg/mL of Alexa Fluor-555 azide (from 0.5 mg/mL, Thermo Fisher) for 30 minutes at RT in the dark. The staining cocktail was then removed, and cells were washed with PBS. Then, hNPCs were counterstained with anti-rabbit SOX-2 antibody following the immunofluorescence protocol described below and 4′, 6-diamidino-2-phenylindole (DAPI, Thermo Fisher) at 5 μg/mL in PBS for 20 min at RT. The cells were then washed with PBS and mounted with Immu-Mount (Fisher Scientific) for imaging.
as §4, with “Finally, the samples were mounted on coverslips with Immu-Mount (Fisher Scientific) solution for imaging.” left out

T1 sequence (P05556 21-798): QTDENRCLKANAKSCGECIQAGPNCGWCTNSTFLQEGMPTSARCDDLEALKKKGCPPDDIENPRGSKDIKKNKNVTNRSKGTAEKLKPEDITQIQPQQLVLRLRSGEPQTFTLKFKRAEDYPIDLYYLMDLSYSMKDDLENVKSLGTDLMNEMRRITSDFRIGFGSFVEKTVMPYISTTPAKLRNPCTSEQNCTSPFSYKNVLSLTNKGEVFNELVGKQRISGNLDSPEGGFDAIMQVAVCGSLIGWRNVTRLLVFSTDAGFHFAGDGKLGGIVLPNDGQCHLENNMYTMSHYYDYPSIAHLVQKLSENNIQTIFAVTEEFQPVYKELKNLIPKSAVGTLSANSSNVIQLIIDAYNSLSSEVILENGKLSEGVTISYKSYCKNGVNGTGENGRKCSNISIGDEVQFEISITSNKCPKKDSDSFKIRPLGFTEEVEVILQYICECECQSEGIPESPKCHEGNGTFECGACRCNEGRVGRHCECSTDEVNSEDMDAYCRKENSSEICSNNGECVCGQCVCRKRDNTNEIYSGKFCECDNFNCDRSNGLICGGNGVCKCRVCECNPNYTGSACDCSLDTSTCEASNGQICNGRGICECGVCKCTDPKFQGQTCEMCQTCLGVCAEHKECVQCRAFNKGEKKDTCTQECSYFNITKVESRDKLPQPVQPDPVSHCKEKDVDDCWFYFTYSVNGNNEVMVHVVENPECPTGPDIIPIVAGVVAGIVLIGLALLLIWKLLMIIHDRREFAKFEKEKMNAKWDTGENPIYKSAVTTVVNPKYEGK

Substance | in vitro bioactivity (summary) (β1-INTEGRIN (ITGB1)) | R2 [1] [s⁻¹] | percentage of induction of TUJ-1+ neuronal cells (hNPCs [2]) [%] | glial scar (reactive astrocytes, GFAP) at the borders of the injury [3] | CST axon regrowth within the lesion [4] | percentage of proliferating EdU+ and SOX2+ cells (hNPCs [5]) | percentage of neuronal progenitor cells PAX6+ (hNPCs [5]; one week later)
C16-A4E4GIKVAV [IKVAV PA8] | low level of in vitro bioactivity | 4.5 ± 0.2 | 7.5±0.5 |  |  |  | 
C16-V2A2E2 (VVAAEE) [Backbone PA] |  |  |  | dense population of reactive astrocytes expressing high levels of GFAP | hardly observed |  | 
laminin |  |  |  |  |  | decreased significantly | increased percentage
C16-VA3E4GIKVAV [IKVAV PA6] | low level of in vitro bioactivity | 6.1 ± 0.8 | 7.9±1.3 |  |  |  | 
C16-AVG2E4GIKVAV [IKVAV PA3] | low level of in vitro bioactivity | 4.5 ± 0.7 | 7.5±0.6 |  |  |  | 
C16-AVA2E4GIKVAV [IKVAV PA7] | low level of in vitro bioactivity | 6.0 ± 0.03 | 7.4±0.6 |  |  |  | 
